The target of series [1] is T1, EGFR expressed by A549 cells (Homo sapiens, UniProt P00533).
T1 construct: EGFR expressed by A549 cells; endogenous in cells; host or cells: A549 cells
Kind of series: Binding of YOYO-1-stained conjugate to EGFR on A549 cells (microscopy). To be noted: 200 nM, 30 minutes. The protocol:
We tested whether the EGFR binding peptide-siRNA conjugate of Example 6 was able to specifically bind EGFR expressed by A549 cells by incubating the EGFR binding peptide-siRNA conjugate of Example 6 with A549 cells. As a control, A549 cells were incubated with the unconjugated anti-EGFR siRNA of Example 6.
A549 cells were treated with 200 nM of either the EGFR-binding peptide-conjugated siRNA of Example 6 or the unconjugated EGFR siRNA of Example 6, each stained with YOYO-1, a nucleic acid staining dye.
After 30 minutes, cells were then fixated with 4% paraformaldehyde (PFA) for 10 minutes, then washed twice with DPBS. Nuclei were then stained using Hoechst 33342 and the cells were examined for YOYO-1 staining.

For series [2], the target named is T2, PD-L1 expressed by CT26.CL25 cells (Mus musculus, UniProt Q9EP73).
T2 construct: PD-L1 expressed by CT26.CL25 cells; endogenous in cells; host or cells: CT26.CL25 cells
T2 sequence (Q9EP73 19-290): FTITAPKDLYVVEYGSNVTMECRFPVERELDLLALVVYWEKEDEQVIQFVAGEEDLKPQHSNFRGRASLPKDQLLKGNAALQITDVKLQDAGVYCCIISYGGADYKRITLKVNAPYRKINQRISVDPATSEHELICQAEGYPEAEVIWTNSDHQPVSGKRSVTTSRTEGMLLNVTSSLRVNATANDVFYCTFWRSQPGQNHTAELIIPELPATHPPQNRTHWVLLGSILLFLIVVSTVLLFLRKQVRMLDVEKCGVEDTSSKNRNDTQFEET
Kind of series: Binding of Cy5.5-labeled conjugate to PD-L1 on CT26.CL25 cells (fluorescence microscopy). To be noted: 200 nM, 30 minutes at 4° C., no antibody pre-treatment. The procedure: We tested whether the PD-L1 binding peptide-siRNA conjugate of Example 1 was able to specifically bind PD-L1 expressed by CT26.CL25 cells by incubating the PD-L1 binding peptide-siRNA conjugate of Example 1 with CT26.CL25 cells that either had, or had not, been pre-treated with an anti-PD-L1 antibody. As a control, CT26.CL25 cells were incubated with the unconjugated anti-PD-L1 siRNA of Example 1.
Here, 2 ml of CT26.CL25 cells (at 5×10^6 cells/ml) were seeded into each of four dishes. 24 hours after seeding, and one hour before treatment with the conjugate of Example 1, one dish was pre-treated with 1 ml of anti-PD-L1 antibody (InVivoMAb anti-mouse PD-L1, BioXCell Cat. #BE0101) at 1 mg/ml. After incubation with the antibody, the pre-treated cells were incubated with 1 ml (200 nM) of the conjugate of Example 1 for 30 minutes at 4° C. At the same time, a dish that had not been pre-treated was similarly incubated with the conjugate of Example 1, and another dish that had not been pre-treated was similarly incubated with the unconjugated anti-PD-L1 siRNA of Example 1.
Cells were then fixated with 4% paraformaldehyde (PFA) for 10 min, then washed twice with DPBS. Nuclei were then stained using Hoechst 33342 (blue of FIG. 2) and the cells were examined for Cy5.5 fluorescence (red of FIG. 2).

For another series, the system named is B16F10 cells. Kind of series: Internalization by B16F10 cells (Cy5.5 fluorescence microscopy). Conditions: 18 hours and 24 hours of incubation. It counts as cell-based. The protocol: B16F10 cells were also incubated with either the PD-L1 binding peptide-siRNA conjugate of Example 1 or the unconjugated Cy5.5-labeled siRNA of Example 1 and similarly fixated after 18 hours and 24 hours of incubation.
(§1) Nuclei were stained using Hoechst 33342 (blue of FIGS. 3 and 4) and the cells were examined for Cy5.5 fluorescence (red of FIGS. 3 and 4).

The test system of another series is CT26.CL25 cells. Kind of series: Internalization by CT26.CL25 cells (Cy5.5 fluorescence microscopy). It counts as cell-based. Conditions: 9 hours, 18 hours and 24 hours of incubation. The procedure: CT26.CL25 cells were incubated, as described in Example 2, with either the PD-L1 binding peptide-siRNA conjugate of Example 1 or the unconjugated Cy5.5-labeled siRNA of Example 1. After 9 hours, 18 hours, and 24 hours of incubation, cells were then fixated with 4% paraformaldehyde (PFA) for 10 min and washed twice with DPBS.
as §1

{DBCO} = dibenzocyclooctyne group for click conjugation; d = 2'-deoxy (DNA); r = 2'-OH (RNA)

For the substance “siRNA: anti-EGFR siRNA: sense AUAGGCAUUGGUGAAUUUAAAGAdCdA-[DBCO] (SEQ ID NO:120), antisense UGUCUUUAAAUUCACCAAUGCCUAUGC (SEQ ID NO:121) (sense AUAGGCAUUGGUGAAUUUAAAGACA; sense: sugars from the 5' end r23 d2, 3' {DBCO}, backbone not given here; antisense: RNA, backbone not given here; sense 3' DBCO clicked to azide EGFR-binding peptide) [reference compound]”, in series [1], the “YOYO-1 staining on cells (binding to EGFR)” value is “no YOYO-1 staining”.

On to “unconjugated Cy5.5-labeled siRNA of Example 1: anti-PD-L1 siRNA: sense GACUCAAGAUGGAACCUGAdTdT-[DBCO] (SEQ ID NO:12), antisense dTdTCUGAGUUCUACCUUGGACU-Cy5.5 (SEQ ID NO:13) (sense GACUCAAGAUGGAACCUGATT; antisense TTCUGAGUUCUACCUUGGACU; dTdT overhangs, DBCO, Cy5.5 label, chemistry not fully specified; one strand is listed 3' to 5') [reference compound]”, for which the “Cy5.5 fluorescence on cells (binding to cell-surface PD-L1)” value in series [2] is on record as “very low levels of Cy5.5 fluorescence”; in series [2] (listed as unconjugated Cy5.5-labeled siRNA), “little to no Cy5.5 fluorescence”. Also, the “Internalization (Cy5.5 fluorescence)” value with B16F10 cells and in the series on CT26.CL25 cells was “significantly less Cy5.5 fluorescence” in each case.

The values are drawn from patent US20240325550A1, “Therapeutic Compounds for Inhibiting and Reducing the Expression of Cell Surface Proteins” (KIST (Korea Institute of Science and Technology), priority 2023, published 2024).
